Data on nine molecules can be found in patent publication US11517598B2 (priority 2016, dated 2022).

Data set [1] relates to oncolytic VSVΔ51 in 786-0 renal carcinoma cells.
The subject of data set [2] is VSVΔ51-GFP in CT26WT and DBT tumor cores. In kind it is cell-based, mouse.
For data set [3] the following is noted: mouse, in vivo.
The test system of data set [4] is HSV-1 (mutant N212) in 786-0 cells. In kind it is cell-based, human.
Data set [5] concerns IFITM1. The class given is cell-based, human.
Sequence of IFITM1 (P13164 whole entry): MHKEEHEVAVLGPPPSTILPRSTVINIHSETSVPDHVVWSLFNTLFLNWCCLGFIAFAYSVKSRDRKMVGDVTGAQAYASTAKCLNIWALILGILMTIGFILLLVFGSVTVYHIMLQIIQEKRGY
The test system of data set [6] is VSVΔ51-GFP in normal lung, muscle and spleen tissue cores. The class given is cell-based, mouse.
The subject of data set [7] is Measles virus in 786-0 cells. In kind it is cell-based, human.
The test system of data set [8] is bilateral DBT tumors. To be noted: mouse, in vivo.
In data set [9] the test system is CT26-LacZ tumors. As to conditions: mouse, in vivo.
The test system of data set [10] is cytokine, chemokine and IFN stimulated gene expression in 786-0 cells. The class given is cell-based, human.
In data set [11] the test system is VSVΔ51 matrix (M) mRNA in 786-0 cells. The class given is cell-based, human.
The test system of data set [12] is various human and rodent cancer cell lines.
Data set [13] concerns STAT2. In kind it is cell-based, human.
Data set [14] concerns VSVΔ51 in GM38 fibroblasts. The class given is cell-based, human.
In data set [15] the test system is CXCL9 in various human cancer cell lines. In kind it is cell-based.
The subject of data set [16] is STAT1. The class given is cell-based, human.
Data set [17] concerns CT26WT, 4T1, DBT, and Pan02 tumors. To be noted: mouse, in vivo.
Data set [18] deals with CT26WT tumors. To be noted: mouse.
In data set [19] the test system is VSVwt in 786-0 cells. In kind it is cell-based, human.
For data set [20], the system named is Sindbis virus in 786-0 cells. The class given is cell-based, human.
Data set [21] has as its system VSVΔ51 matrix (M) mRNA in CT26-WT colon cancer cells. The class given is cell-based, mouse.

“Also recorded” adds a separate entry of the source. Read-outs that look alike come from different tables or passages of the source.

With Vanadium(IV) oxide sulfate hydrate [VS], in data set [1], the “VSVΔ51 growth (viral titer, GFP positive cell counts)” value is listed as “effectively enhanced VSVΔ51 growth”.

As for “potassium permanganate [Manganese, reference compound]”, the “VSVΔ51 growth (viral titer, GFP positive cell counts)” value in data set [1] is listed as “neither Manganese, Molybdene, or Tungsten oxide salts could enhance VSVΔ51 growth”.

As for `CC(=O)N[C@@H](CS)C(=O)O` [NAC, N-acetyl-L-cysteine, reference compound], the “effect of NAC on vanadate-enhanced viral spread (viral titer)” value in [1] was “did not abrogate vanadate's capacity to enhance viral spread”.

On to Tungsten [reference compound], for which, in [1], the “VSVΔ51 growth (viral titer, GFP positive cell counts)” value is “neither Manganese, Molybdene, or Tungsten oxide salts could enhance VSVΔ51 growth”.

Turning to Sodium orthovanadate, the “growth of VSVΔ51-GFP in tumor cores (fluorescence)” value in data set [2] is on record as “robustly increased the growth of the virus in tumor cores”. Also, the toxicity entry in [3] is “evidence of toxicity was observed”. For the same molecule, the toxicity result in data set [3] (pH 7) is listed as “greatly reduced”. For the same molecule, in data set [4], the HSV-1 growth result was “robustly inhibited”. In addition, in [5], the “protein expression levels of IFITM1” value is “potently repressed”. Also, the “growth of VSVΔ51-GFP in normal tissue cores (fluorescence)” value in data set [6] is on record as “not in normal tissue cores”. The “yield of Measles virus” value in data set [7] is recorded as “improved”. In addition, in [8], the “tumor regression with monotherapy” value is recorded as “some tumors did regress” and the virus-associated luminescence result is reported as “uniquely enhanced by vanadate in the injected tumors on the right side”. Besides, the “enhancing effect on survival” value in data set [9] is “completely abrogated”. The “gene set-enrichment (GOrilla), compound alone” value in data set [10] was “induced inflammatory responses, and immune system processes”. Moreover, in data set [11], the “VSVΔ51 matrix (M) protein mRNA and/or viral genomes” value is given as “increased the production of VSVΔ51 matrix (M) protein mRNA and/or viral genomes”. In data set [12], the “cytotoxicity (cell viability) with VSVΔ51 co-infection” value is “A similar effect”. In [13], the “IFNβ-induced phosphorylation of STAT2” value is recorded as “inhibited the IFNβ-induced phosphorylation of STAT2”, the STAT2 nuclear accumulation result is reported as “reduced its nuclear accumulation” and the “localisation of STAT-2 (immunofluorescence)” value is recorded as “remained mostly in the cytoplasm”. The “VSVΔ51 viral growth in normal cells” value in data set [14] is “viral growth was not enhanced”. Also, in data set [1], the “effect on viral growth when given post infection” value is on record as “close to nil”, the “impact on viral growth with pre-treatment time” value is listed as “increasingly evident with increasing pre-treatment time”, the “number of virus-infected cells (GFP)” value was “marked increase in the number of virus-infected cells” and the “pro-viral activity with metal chelating agent” value was “abrogated upon inclusion of L-Ascorbic Acid”. For the same molecule, in data set [1], the “viral output (viral titer by plaque assay)” value was “significantly increase viral output”; the “virus-enhancing activity at different pH (protonation state)” value was “had no impact on its activity”; the “yield of VSVΔ51 in single and multi-step growth curves” value is “more robustly enhanced the yield of VSVΔ51 when provided at low multiplicity of infection (MOI) compared to high MOI”. Besides, the “CXCL9 secretion (ELISA)” value in [15] is “vanadate-mediated increase”. In data set [16], the “IFN-β induced phosphorylation of STAT1” value was “not altered by treatment with vanadate”; the “IFNβ-induced STAT1 phosphorylation and nuclear accumulation” value was “did not similarly affect STAT1”; the “localisation of activated STAT1 (immunofluorescence)” value was “translocated to the nucleus”; the “phosphorylation of STAT1 at baseline” value is “increased by vanadate at baseline”. Moreover, in data set [17], the “survival, combination with VSVΔ51” value is recorded as “significantly improved survival; also recorded: significantly prolonged over virus alone” and the “virus-associated luciferase gene expression (IVIS)” value is reported as “robustly enhanced virus-associated luciferase gene expression”. In data set [18] (in vivo), the “T-cells within the tumor” value is “increased accumulation of T-cells within the tumor” and the “re-challenge of cured mice with the same cancer cells” value is listed as “became immune to re-challenge”. Also, the “in vivo virus-enhancing activity at pH 7” value in data set [18] (pH 7) was “retained its activity”. Also, the wtVSV yield entry in data set [19] was “modest improvements in wtVSV yield”. Also, the “yield of Sindbis virus” value in data set [20] was “improved”. In addition, in [21], the “VSVΔ51 matrix (M) protein mRNA and/or viral genomes” value is listed as “increased the production of VSVΔ51 matrix (M) protein mRNA and/or viral genomes”.

Consider Ammonium metavanadate, for which, in data set [1], the “VSVΔ51 growth (viral titer, GFP positive cell counts)” value was “effectively enhanced VSVΔ51 growth”.

For the molecule “Chromium(VI) oxide [Chromium trioxide, reference compound]”, in [1], the “VSVΔ51 growth (viral titer)” value is “did enhance viral growth but only at a single dose tested” and the “toxicity (not shown)” value is on record as “highly toxic in comparison to orthovanadate”.

For the molecule Bis(maltolato) oxovanadium(IV) [BMOV], the “VSVΔ51 growth (viral titer, GFP positive cell counts)” value in data set [1] is on record as “effectively enhanced VSVΔ51 growth”.

Vanadium(V) oxytriethoxide [VOx]: the “VSVΔ51 growth (viral titer, GFP positive cell counts)” value in data set [1] is “effectively enhanced VSVΔ51 growth”.
